Tests used:
Format in all cases: in vivo
Settings in all cases: rated four to five weeks after treatment
[1] = system: ORYZA SATIVA, L. TEBONNET; assay: Preemergence herbicidal evaluation, ORYSAT (Rice, Tebonnet); set-up: key to ORYSAT: visual rating scale 0-9 vs control
Text: (§1) Results of herbicide evaluation are expressed on a rating scale (0-9). The scale is based upon a visual observation of plant stand, vigor, malformation, size, chlorosis and overall plant appearance as compared with a control.
(§2) The preemergence herbicidal activity of the test compounds of the present invention is exemplified by the following tests in which the seeds of a variety of monocotyledonous and dicotyledonous plants are separately mixed with potting soil and planted on top of approximately one inch of soil in separate pint cups. After planting, the cups are sprayed with the selected aqueous acetone solution containing test compound in sufficient quantity to provide the equivalent of about 0.125 to 0.50 kg per hectare of test compound per cup. The treated cups are then placed on greenhouse benches, watered and cared for in accordance with conventional greenhouse procedures. From four to five weeks after treatment, the tests are terminated and each cup is examined and rated according to the rating system provided in Example 42.

CASSIA OBTUSIFOLIA, L. [2] = assay: Postemergence herbicidal evaluation, CASOB (Sicklepod)
Protocol: (§3) In the tests, seedling plants are grown in jiffy flats for about two weeks. The test compounds are dispersed in 50/50 acetone/water mixtures containing 0.5% TWEEN®20, a polyoxyethylene sorbitan monolaurate surfactant of Atlas Chemical Industries, in sufficient quantities to provide the equivalent of about 0.125 kg to 0.500 kg per hectare of active compound when applied to the plants through a spray nozzle operating at 40 psi for a predetermined time. After spraying, the plants are placed on greenhouse benches and are cared for in the usual manner, commensurate with conventional greenhouse practices. From four to five weeks after treatment, the seedling plants are examined and rated according to the rating system set forth below. Where more than one test is involved for a given compound, the data are averaged.
as §1

[3] = system: TRITICUM AESTIVUM, CV. APOLLO; assay: Preemergence herbicidal evaluation, TRZAWO (Wheat, Winter, CV. APOLLO); set-up: key to TRZAWO: visual rating scale 0-9 vs control
Text: as §1, §2

ZEA MAYS L. = assay: Preemergence herbicidal evaluation, ZEAMX (Corn, Field); set-up: key to ZEAMX: visual rating scale 0-9 vs control
Text: as §1, §2

CASSIA OBTUSIFOLIA, L. [4] = assay: Preemergence herbicidal evaluation, CASOB (Sicklepod); set-up: key to CASOB: visual rating scale 0-9 vs control
Text: as §1, §2

[5] = system: AMBROSIA ARTEMISIIFOLIA, L.; assay: Preemergence herbicidal evaluation, AMBEL (Ragweed, Common); set-up: key to AMBEL: visual rating scale 0-9 vs control
Text: as §1, §2

IPOMOEA SPP. = assay: Preemergence herbicidal evaluation, IPOSS (Morningglory Spp.); set-up: key to IPOSS: visual rating scale 0-9 vs control
Text: as §1, §2

[6] = system: SETARIA VIRIDIS, (L) BEAU; assay: Preemergence herbicidal evaluation, SETVI (Foxtail, Green); set-up: key to SETVI: visual rating scale 0-9 vs control
Text: as §1, §2

GALIUM APARINE = assay: Preemergence herbicidal evaluation, GALAP (Galium); set-up: key to GALAP: visual rating scale 0-9 vs control
Text: as §1, §2

[7] = system: SETARIA VIRIDIS, (L) BEAU; assay: Postemergence herbicidal evaluation, SETVI (Foxtail, Green)
Protocol: as §3, §1

[8] = system: GLYCINE MAX(L)MERR. CV. WILLIAMS; assay: Preemergence herbicidal evaluation, GLXMAW (Soybean, Williams); set-up: key to GLXMAW: visual rating scale 0-9 vs control
Text: as §1, §2

CHENOPODIUM ALBUM, L. = assay: Preemergence herbicidal evaluation, CHEAL (Lambsquarters, Common); set-up: key to CHEAL: visual rating scale 0-9 vs control
Text: as §1, §2

[9] = system: ABUTILON THEOPHRASTI, MEDIC.; assay: Preemergence herbicidal evaluation, ABUTH (Velvetleaf); set-up: key to ABUTH: visual rating scale 0-9 vs control
Text: as §1, §2

[10] = system: ECHINOCHLOA CRUS-GALLI, (L) BEAU; assay: Postemergence herbicidal evaluation, ECHCG (Barnyardgrass)
Protocol: as §3, §1

[11] = system: ECHINOCHLOA CRUS-GALLI, (L) BEAU; assay: Preemergence herbicidal evaluation, ECHCG (Barnyardgrass); set-up: key to ECHCG: visual rating scale 0-9 vs control
Text: as §1, §2

[12] = system: TRITICUM AESTIVUM, CV. APOLLO; assay: Postemergence herbicidal evaluation, TRZAWO (Wheat, Winter, CV. APOLLO)
Protocol: as §3, §1

[13] = system: ABUTILON THEOPHRASTI, MEDIC.; assay: Postemergence herbicidal evaluation, ABUTH (Velvetleaf)
Protocol: as §3, §1

In the case of `CCOC(=O)Cn1c(=O)[nH]c(=O)n(-c2ccc(F)c(N3C(=O)C4=C(CCCC4)C3=O)c2)c1=O` [Compound 9, Ethyl 3-[3-(1-cyclohexene-1,2-dicarbox-imido)-4-fluorophenyl]tetrahydro-2,4,6-trioxo-s-triazine-1(2H)-acetate], the “Herbicide rating (0-9) ORYSAT” value ([1]; 0.125 kg/ha) is reported as 0.0, the “Herbicide rating (0-9) ORYSAT” value ([1]; 0.250 kg/ha) is reported as 0.0 and the “Herbicide rating (0-9) ORYSAT” value ([1]; 0.500 kg/ha) is reported as 0.0. The “Herbicide rating (0-9) CASOB” value (CASSIA OBTUSIFOLIA, L. [2]; 0.125 kg/ha) was 0.0, the “Herbicide rating (0-9) CASOB” value (CASSIA OBTUSIFOLIA, L. [2]; 0.250 kg/ha) was 0.0 and the “Herbicide rating (0-9) CASOB” value (CASSIA OBTUSIFOLIA, L. [2]; 0.500 kg/ha) was 0.0. For the same compound, the “Herbicide rating (0-9) TRZAWO” value ([3]; 0.125 kg/ha) was 0.0, the “Herbicide rating (0-9) TRZAWO” value ([3]; 0.250 kg/ha) was 0.0 and the “Herbicide rating (0-9) TRZAWO” value ([3]; 0.500 kg/ha) was 0.0. For the same compound, the “Herbicide rating (0-9) ZEAMX” value (ZEA MAYS L.; 0.125 kg/ha) was 0.0, the “Herbicide rating (0-9) ZEAMX” value (ZEA MAYS L.; 0.250 kg/ha) was 0.0 and the “Herbicide rating (0-9) ZEAMX” value (ZEA MAYS L.; 0.500 kg/ha) was 0.0. For the same compound, the “Herbicide rating (0-9) CASOB” value (CASSIA OBTUSIFOLIA, L. [4]; 0.125 kg/ha) was 0.0, the “Herbicide rating (0-9) CASOB” value (CASSIA OBTUSIFOLIA, L. [4]; 0.250 kg/ha) was 0.0 and the “Herbicide rating (0-9) CASOB” value (CASSIA OBTUSIFOLIA, L. [4]; 0.500 kg/ha) was 0.0. The “Herbicide rating (0-9) AMBEL” value ([5]; 0.125 kg/ha) was 0.0, the “Herbicide rating (0-9) AMBEL” value ([5]; 0.250 kg/ha) was 0.0 and the “Herbicide rating (0-9) AMBEL” value ([5]; 0.500 kg/ha) was 0.0. The “Herbicide rating (0-9) IPOSS” value (IPOMOEA SPP.; 0.125 kg/ha) was 0.0, the “Herbicide rating (0-9) IPOSS” value (IPOMOEA SPP.; 0.250 kg/ha) was 0.0 and the “Herbicide rating (0-9) IPOSS” value (IPOMOEA SPP.; 0.500 kg/ha) was 0.0. The “Herbicide rating (0-9) SETVI” value ([6]; 0.125 kg/ha) was 0.0, the “Herbicide rating (0-9) SETVI” value ([6]; 0.250 kg/ha) was 0.0 and the “Herbicide rating (0-9) SETVI” value ([6]; 0.500 kg/ha) was 0.0. For the same compound, the “Herbicide rating (0-9) GALAP” value (GALIUM APARINE; 0.125 kg/ha) was 0.0, the “Herbicide rating (0-9) GALAP” value (GALIUM APARINE; 0.250 kg/ha) was 0.0 and the “Herbicide rating (0-9) GALAP” value (GALIUM APARINE; 0.500 kg/ha) was 0.0. The “Herbicide rating (0-9) SETVI” value ([7]; 0.125 kg/ha) was 0.0, the “Herbicide rating (0-9) SETVI” value ([7]; 0.250 kg/ha) was 0.0 and the “Herbicide rating (0-9) SETVI” value ([7]; 0.500 kg/ha) was 0.0. For the same compound, the “Herbicide rating (0-9) GLXMAW” value ([8]; 0.125 kg/ha) was 0.0, the “Herbicide rating (0-9) GLXMAW” value ([8]; 0.250 kg/ha) was 0.0 and the “Herbicide rating (0-9) GLXMAW” value ([8]; 0.500 kg/ha) was 0.0. For the same compound, the “Herbicide rating (0-9) CHEAL” value (CHENOPODIUM ALBUM, L.; 0.125 kg/ha) was 0.0, the “Herbicide rating (0-9) CHEAL” value (CHENOPODIUM ALBUM, L.; 0.250 kg/ha) was 0.0 and the “Herbicide rating (0-9) CHEAL” value (CHENOPODIUM ALBUM, L.; 0.500 kg/ha) was 0.0. The “Herbicide rating (0-9) ABUTH” value ([9]; 0.125 kg/ha) was 0.0, the “Herbicide rating (0-9) ABUTH” value ([9]; 0.250 kg/ha) was 0.0 and the “Herbicide rating (0-9) ABUTH” value ([9]; 0.500 kg/ha) was 0.0. For the same compound, the “Herbicide rating (0-9) ECHCG” value ([10]; 0.125 kg/ha) was 0.0, the “Herbicide rating (0-9) ECHCG” value ([10]; 0.250 kg/ha) was 0.0 and the “Herbicide rating (0-9) ECHCG” value ([10]; 0.500 kg/ha) was 0.0. For the same compound, the “Herbicide rating (0-9) ECHCG” value ([11]; 0.125 kg/ha) was 0.0, the “Herbicide rating (0-9) ECHCG” value ([11]; 0.250 kg/ha) was 0.0 and the “Herbicide rating (0-9) ECHCG” value ([11]; 0.500 kg/ha) was 0.0.

`CC(C)OC(=O)Cn1c(=O)n(C)c(=O)n(-c2cc(N=c3sc(=O)n4n3CCCC4)c(F)cc2Cl)c1=O` [Compound 13, Isopropyl 3-{2-chloro-4-fluoro-5-[(tetra-hydro-3-oxo-1H,3H-[1,3,4]thiadiazolo[3,4-a]pyridazin-1-ylidene)amino]phenyl}tetra-hydro-5-methyl-2,4,6-trioxo-s-triazine-1(2H)-acetate] showed an ORYSAT ([1]; Rate 0.125 kg/ha) of 0.0, an ORYSAT ([1]; Rate 0.250 kg/ha) of 1.0 and an ORYSAT ([1]; Rate 0.500 kg/ha) of 2.0. For the same compound, the TRZAWO ([3]; Rate 0.125 kg/ha) was 0.0, the TRZAWO ([3]; Rate 0.250 kg/ha) was 0.0 and the TRZAWO ([3]; Rate 0.500 kg/ha) was 1.0. The ZEAMX (ZEA MAYS L.; Rate 0.125 kg/ha) was 0.0, the ZEAMX (ZEA MAYS L.; Rate 0.250 kg/ha) was 0.0 and the ZEAMX (ZEA MAYS L.; Rate 0.500 kg/ha) was 1.0. It also gave a CASOB (CASSIA OBTUSIFOLIA, L. [4]; Rate 0.125 kg/ha) of 5.0, a CASOB (CASSIA OBTUSIFOLIA, L. [4]; Rate 0.250 kg/ha) of 9.0 and a CASOB (CASSIA OBTUSIFOLIA, L. [4]; Rate 0.500 kg/ha) of 9.0. It also gave an AMBEL ([5]; Rate 0.125 kg/ha) of 0.0, an AMBEL ([5]; Rate 0.250 kg/ha) of 3.0 and an AMBEL ([5]; Rate 0.500 kg/ha) of 8.0. It also gave an IPOSS (IPOMOEA SPP.; Rate 0.125 kg/ha) of 2.0, an IPOSS (IPOMOEA SPP.; Rate 0.250 kg/ha) of 5.0 and an IPOSS (IPOMOEA SPP.; Rate 0.500 kg/ha) of 6.0. For the same compound, the SETVI ([6]; Rate 0.125 kg/ha) was 0.0, the SETVI ([6]; Rate 0.250 kg/ha) was 7.0 and the SETVI ([6]; Rate 0.500 kg/ha) was 7.0. The GALAP (GALIUM APARINE; Rate 0.125 kg/ha) was 9.0, the GALAP (GALIUM APARINE; Rate 0.250 kg/ha) was 8.0 and the GALAP (GALIUM APARINE; Rate 0.500 kg/ha) was 9.0. For the same compound, the “Herbicide rating (0-9) SETVI” value ([7]; 0.125 kg/ha) was 1.0, the “Herbicide rating (0-9) SETVI” value ([7]; 0.250 kg/ha) was 1.0 and the “Herbicide rating (0-9) SETVI” value ([7]; 0.500 kg/ha) was 1.0. It also gave a GLXMAW ([8]; Rate 0.125 kg/ha) of 0.0, a GLXMAW ([8]; Rate 0.250 kg/ha) of 0.0 and a GLXMAW ([8]; Rate 0.500 kg/ha) of 0.0. For the same compound, the CHEAL (CHENOPODIUM ALBUM, L.; Rate 0.125 kg/ha) was 9.0, the CHEAL (CHENOPODIUM ALBUM, L.; Rate 0.250 kg/ha) was 9.0 and the CHEAL (CHENOPODIUM ALBUM, L.; Rate 0.500 kg/ha) was 9.0. The ABUTH ([9]; Rate 0.125 kg/ha) was 9.0, the ABUTH ([9]; Rate 0.250 kg/ha) was 9.0 and the ABUTH ([9]; Rate 0.500 kg/ha) was 9.0. For the same compound, the “Herbicide rating (0-9) TRZAWO” value ([12]; 0.125 kg/ha) was 3.5, the “Herbicide rating (0-9) TRZAWO” value ([12]; 0.250 kg/ha) was 3.5 and the “Herbicide rating (0-9) TRZAWO” value ([12]; 0.500 kg/ha) was 3.5. The “Herbicide rating (0-9) ECHCG” value ([10]; 0.125 kg/ha) was 0.0, the “Herbicide rating (0-9) ECHCG” value ([10]; 0.250 kg/ha) was 0.0 and the “Herbicide rating (0-9) ECHCG” value ([10]; 0.500 kg/ha) was 0.0. The ECHCG ([11]; Rate 0.125 kg/ha) was 0.0, the ECHCG ([11]; Rate 0.250 kg/ha) was 0.0 and the ECHCG ([11]; Rate 0.500 kg/ha) was 0.0. The “Herbicide rating (0-9) ABUTH” value ([13]; 0.125 kg/ha) was 9.0, the “Herbicide rating (0-9) ABUTH” value ([13]; 0.250 kg/ha) was 9.0 and the “Herbicide rating (0-9) ABUTH” value ([13]; 0.500 kg/ha) was 9.0.

From patent publication EP0745599A2, “1-(3-Heterocyclylphenyl)-s-triazine-2,4,6-oxo or thiotrione herbicidal agents” (American Cyanamid Company, priority 1995, dated 1996)
